Experimental data reported in ChEMBL document CHEMBL5356940, “The rational design of ARUK2007145, a dual inhibitor of the α and γ isoforms of the lipid kinase phosphatidylinositol 5-phosphate 4-kinase (PI5P4K)” (RSC Med Chem, 2023).

Columns and labels:
[1] = Apparent permeability across apical to basolateral side in dog MDCK-MDR1 cells; format: ADME, cell-based, Canis lupus familiaris
[2] = biological target: Phosphatidylinositol 5-phosphate 4-kinase type-2 gamma (Homo sapiens, UniProt Q8TBX8)
Description: Inhibition of GST-fused human recombinant chimeric PI5P4Kgamma+ harboring PI5P4Kalpha-like mutations expressed in Escherichia coli BL21(DE3) incubated for 60 mins by ADP-Glo assay

[3] = biological target: T1, Phosphatidylinositol 5-phosphate 4-kinase type-2 beta (Homo sapiens, UniProt P78356); assay: Inhibition of GST-fused human recombinant PI5P4Kbeta expressed in Escherichia coli BL21(DE3) incubated for 60 mins by ADP-Glo assay
T1 sequence (P78356 whole entry): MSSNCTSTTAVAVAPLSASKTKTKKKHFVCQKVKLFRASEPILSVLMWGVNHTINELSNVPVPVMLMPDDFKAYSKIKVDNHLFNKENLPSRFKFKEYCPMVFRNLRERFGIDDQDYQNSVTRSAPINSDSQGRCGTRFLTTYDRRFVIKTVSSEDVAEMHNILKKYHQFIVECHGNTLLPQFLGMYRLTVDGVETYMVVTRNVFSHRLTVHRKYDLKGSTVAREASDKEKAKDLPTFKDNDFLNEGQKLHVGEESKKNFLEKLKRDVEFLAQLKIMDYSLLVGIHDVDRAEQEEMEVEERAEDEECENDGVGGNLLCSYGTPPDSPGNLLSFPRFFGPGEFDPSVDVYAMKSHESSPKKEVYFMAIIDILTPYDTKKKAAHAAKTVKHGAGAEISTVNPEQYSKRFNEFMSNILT

Chain of Phosphatidylinositol 5-phosphate 4-kinase type-2 gamma (Q8TBX8 2-421 limits assumed, stated change not applied): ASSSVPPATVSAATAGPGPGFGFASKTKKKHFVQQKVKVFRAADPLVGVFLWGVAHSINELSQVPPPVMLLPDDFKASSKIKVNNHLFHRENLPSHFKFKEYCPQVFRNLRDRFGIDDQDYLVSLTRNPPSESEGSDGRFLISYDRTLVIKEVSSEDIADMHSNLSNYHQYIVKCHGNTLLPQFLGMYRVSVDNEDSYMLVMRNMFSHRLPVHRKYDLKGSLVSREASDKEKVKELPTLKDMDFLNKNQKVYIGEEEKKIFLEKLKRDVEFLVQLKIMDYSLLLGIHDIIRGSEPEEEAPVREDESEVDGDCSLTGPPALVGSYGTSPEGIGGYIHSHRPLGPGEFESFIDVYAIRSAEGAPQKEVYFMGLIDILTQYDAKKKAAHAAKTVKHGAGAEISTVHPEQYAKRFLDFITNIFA

SMILES	Papp A→B [1] [×10⁻⁶ cm/s]	pIC50 [2]	IC50 [3] [µM]
Cc1ncccc1-c1cc2ncnc(Nc3ccc(C4CC4)cc3)c2s1	9.95	7.3	–
CSc1ccc(Nc2ncnc3sc(-c4cccnc4Cl)cc23)cc1	–	7.7	–
CCc1ccc(Nc2ncnc3sc(-c4cccnc4C)cc23)cc1	–	6.4	–
Cc1ccc(Nc2ncnc3sc(-c4cccnc4C)cc23)c(C)c1	–	5.4	–
CSc1ccc(Nc2ncnc3cc(-c4cccnc4Cl)sc23)cc1	12.9	8.1	–
Cc1ncccc1-c1cc2ncnc(Nc3ccc(N4CCCC4=O)cc3)c2s1	3.15	8.1	–
CSc1ccc(Nc2ncnc3sc(-c4c(C)noc4C)cc23)cc1	–	7.6	–
Cc1ccc(Nc2ncnc3sc(-c4cccnc4C)cc23)cc1C	–	5.9	–
Cc1cccc(Nc2ncnc3sc(-c4cccnc4C)cc23)c1	–	5.3	–
COc1ccc(Nc2ncnc3sc(-c4cccnc4C)cc23)cc1	–	5.7	–
Cc1ncccc1-c1cc2ncnc(Nc3ccc4ncoc4c3)c2s1	–	6.3	–
CSc1ccc(Nc2ncnc3sc(-c4ccncc4C)cc23)cc1	3.7	7.7	–
Cc1ncccc1-c1cc2c(Nc3ccc(C4CC4)cc3)ncnc2s1	–	7	–
CSc1ccc(Nc2ncnc3sc(-c4cccnc4C)cc23)cc1	–	7.3	–

Second part, the compound after the results:

Papp A→B [1] [×10⁻⁶ cm/s]	pIC50 [2]	IC50 [3] [µM]	SMILES
2.45	7.9	–	Cc1ccncc1-c1cc2c(Nc3ccc(S(C)(=O)=O)cc3)ncnc2s1
–	7.7	–	CS(=O)(=O)c1ccc(Nc2ncnc3sc(-c4ccncc4)cc23)cc1
14.2	–	–	CS(=O)(=O)c1ccc(Nc2ncnc3scc(Cl)c23)cc1
–	7.4	–	CSc1ccc(Nc2ncnc3sc(-c4cnoc4)cc23)cc1
–	7.5	–	CS(=O)(=O)c1ccc(Nc2ncnc3sc(-c4cccnc4)cc23)cc1
2.88	7.4	> 10	Cn1cc(-c2cc3c(Nc4ccc(S(C)(=O)=O)cc4)ncnc3s2)cn1
1.33	7.9	–	CS(=O)(=O)c1ccc(Nc2ncnc3cc(-c4cccnc4Cl)sc23)cc1
–	7.8	–	CS(=O)(=O)c1ccc(Nc2ncnc3sc(-c4cn[nH]c4)cc23)cc1
–	7.5	–	COc1cnccc1-c1cc2c(Nc3ccc(S(C)(=O)=O)cc3)ncnc2s1
3.13	–	> 10	Cc1cnccc1-c1cc2c(Nc3ccc(S(C)(=O)=O)cc3)ncnc2s1
–	5.8	–	Cc1ccc(Nc2ncnc3sc(-c4cccnc4C)cc23)cc1
1.33	7.7	> 10	Cc1ncccc1-c1cc2c(Nc3ccc(S(C)(=O)=O)cc3)ncnc2s1
–	7.2	–	CS(=O)(=O)c1ccc(Nc2ncnc3sc(-c4ccnc(Cl)c4)cc23)cc1
4.73	–	> 10	CS(=O)(=O)c1ccc(Nc2ncnc3sc(-c4cccnc4Cl)cc23)cc1
